Reference: patent publication EP4678638A1, “NEW E3 UBIQUITIN LIGASE LIGAND, PROTEIN DEGRADATION AGENT AND USE THEREOF” (priority 2023, dated 2024)
Read-outs that look alike come from different tables or passages of the source.

What was measured:
[1] = test system: H1975; test: CCK-8 proliferation, NCI-H1975 (H1975); assay type: cell-based, Human; settings: Homo sapiens, NCI-H1975; CCK-8; 96 hours; read-out: Inhibitory activity (IC50) on tumor cell proliferation, H1975
In short: (§1)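 Cells seeded, then after 24 h treated with 10 concentrations (top 10 µM, 5-fold serial dilution) for a line-specific time at 37°C, 5% CO2. Viability read by CCK-8; IC50 fitted from growth-inhibition curves.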

[2] = test system: SR; test: CCK-8 proliferation, SR; assay type: cell-based, Human; settings: Homo sapiens
In short: as §1

[3] = test system: SW620; test: CCK-8 proliferation, SW620; assay type: cell-based; settings: Homo sapiens, SW-620; CCK-8; 96 hours; read-out: Inhibitory activity (IC50) on tumor cell proliferation, SW620
In short: as §1

[4] = test system: MV-4-11; test: CCK-8 proliferation, MV-4-11; assay type: cell-based, Human; settings: Homo sapiens, MV4-11
In short: as §1

[5] = test system: CAL-62; test: CCK-8 proliferation, CAL-62; assay type: cell-based; settings: Homo sapiens, 72 hours, read-out: Inhibitory activity (IC50) on tumor cell proliferation, CAL-62
Experimental: (§2) The tumor cells used herein were cultured in a cell culture medium listed in table A1 at 37°C in an incubator with 5% CO2. Prior to experimentation, all cell lines used were correctly identified by STR profiling, and tested negative for mycoplasma contamination using a mycoplasma detection kit through routine screenings. Table A1. Tumor cells and cell culture medium used in the present disclosure
(§3) IC50 values of the compounds of the present disclosure (including the compounds in Table 1, and compounds of examples) were measured using the Meilun Cell Counting Kit-8 kit from Dalian Meilun Biotech Co., Ltd. Assay details are as follows: tumor cells were seeded in a 96-well plate at a density listed in Table A2. After 24h, 100 µL of the inoculated cells were treated with 0.5µL of the compounds of the present disclosure (including the compounds in Tables 1 and 2, and compounds of examples) at 10 different successively decreasing concentrations (starting at the highest concentration of 10µM; 5-fold serial dilutions). After the cells were treated with the compounds of the present disclosure for a period of time, the cell viability detection reagent was added to the culture medium for cell viability assessment according to the instructions provided with the CCK-8 kit. […] The growth inhibition of the compounds of the present disclosure on cells was plotted by Prism Graphpad software, and the IC50 values of the compounds of the present disclosure were calculated therefrom. […] Seeding protocol and treatment time for tumor cells

[6] = test system: CCRF-CEM; test: CCK-8 proliferation, CCRF-CEM; assay type: cell-based, Human; settings: Homo sapiens
In short: as §1

[7] = target: T1, FAK (Homo sapiens, UniProt Q05397); test: Western blot degradation of FAK; assay type: cell-based; settings: Table D7
T1 construct: evaluate the effects of the compounds of the present disclosure on the expression of target proteins in cells; endogenous in cells
T1 sequence (Q05397 whole entry, species assumed): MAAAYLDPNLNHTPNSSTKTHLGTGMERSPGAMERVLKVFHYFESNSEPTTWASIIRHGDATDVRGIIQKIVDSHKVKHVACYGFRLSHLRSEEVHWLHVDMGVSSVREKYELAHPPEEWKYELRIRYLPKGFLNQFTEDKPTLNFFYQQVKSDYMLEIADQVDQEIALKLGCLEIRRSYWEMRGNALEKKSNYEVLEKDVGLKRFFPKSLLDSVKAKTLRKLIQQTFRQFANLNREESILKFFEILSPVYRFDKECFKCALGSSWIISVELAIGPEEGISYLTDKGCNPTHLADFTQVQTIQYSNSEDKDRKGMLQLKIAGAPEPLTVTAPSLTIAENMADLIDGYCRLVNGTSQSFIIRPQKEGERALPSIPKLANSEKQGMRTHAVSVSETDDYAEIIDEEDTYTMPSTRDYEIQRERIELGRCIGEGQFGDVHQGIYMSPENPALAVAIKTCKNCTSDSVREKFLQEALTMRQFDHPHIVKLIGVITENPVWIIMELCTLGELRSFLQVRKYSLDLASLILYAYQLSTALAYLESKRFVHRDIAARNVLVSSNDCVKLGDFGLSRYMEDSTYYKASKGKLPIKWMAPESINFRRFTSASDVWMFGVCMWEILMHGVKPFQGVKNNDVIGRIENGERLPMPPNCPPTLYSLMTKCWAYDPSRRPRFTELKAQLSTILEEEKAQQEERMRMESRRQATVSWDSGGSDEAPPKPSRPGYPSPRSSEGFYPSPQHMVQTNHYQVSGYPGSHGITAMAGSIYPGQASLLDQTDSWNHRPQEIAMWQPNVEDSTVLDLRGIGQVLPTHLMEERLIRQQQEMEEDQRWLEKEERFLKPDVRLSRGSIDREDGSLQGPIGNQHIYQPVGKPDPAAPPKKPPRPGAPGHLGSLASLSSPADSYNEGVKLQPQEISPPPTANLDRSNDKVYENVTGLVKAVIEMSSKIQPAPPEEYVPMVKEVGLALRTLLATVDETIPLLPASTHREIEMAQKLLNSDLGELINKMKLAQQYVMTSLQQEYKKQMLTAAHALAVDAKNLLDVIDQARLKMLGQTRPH
In short: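 Quantification by ImageJ densitometry of Western blot bands: DC50 is the fitted concentration halving band intensity relative to DMSO. Percent remaining uses internal-control normalization, and degradation rate is its complement.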

[8] = test system: THP-1; test: CCK-8 proliferation, THP-1; assay type: cell-based; settings: Homo sapiens, 72 hours, read-out: Inhibitory activity (IC50) on tumor cell proliferation, THP-1
Experimental: as §2, §3

[9] = test system: BXPC-3; test: CCK-8 proliferation, BXPC-3; assay type: cell-based; settings: Homo sapiens, 96 hours, read-out: Inhibitory activity (IC50) on tumor cell proliferation, BXPC-3
Experimental: as §2, §3

[10] = test system: H1299; test: CCK-8 proliferation, H1299; design: species or system Human; settings: Homo sapiens, NCI-H1299; Table B10, compounds designed based on the IRAK4 inhibitors; H1299 cells; read-out: Inhibitory activity (IC50, nM) on tumor cell proliferation, H1299
Experimental: as §2, §3

[11] = test system: LNcap; test: CCK-8 proliferation, LNcap; assay type: cell-based; settings: Homo sapiens; Table B10, compounds designed based on the IRAK4 inhibitors; Lncap cells; read-out: Inhibitory activity (IC50, nM) on tumor cell proliferation, Lncap
Experimental: as §2, §3

[12] = test system: MGC-803; test: CCK-8 proliferation, MGC-803 (heads: MGC80-3, MGC803); assay type: cell-based, Human; settings: Homo sapiens, MGC-803
In short: as §1

[13] = test system: MM.1S; test: CCK-8 proliferation, MM.1S; assay type: cell-based; settings: Homo sapiens, MM1.S; Table B10, compounds designed based on the IRAK4 inhibitors; MM.1S cells; read-out: Inhibitory activity (IC50, nM) on tumor cell proliferation, MM.1S
In short: as §1

[14] = target: T2, human Cereblon WT GST-tagged protein (Homo sapiens, UniProt Q96SW2); test: CRBN binding, HTRF (CEREBLON BINDING kit); settings: HTRF
T2 construct: purchased CISBIO 64BDCRBNPEH
T2 sequence (Q96SW2 whole entry): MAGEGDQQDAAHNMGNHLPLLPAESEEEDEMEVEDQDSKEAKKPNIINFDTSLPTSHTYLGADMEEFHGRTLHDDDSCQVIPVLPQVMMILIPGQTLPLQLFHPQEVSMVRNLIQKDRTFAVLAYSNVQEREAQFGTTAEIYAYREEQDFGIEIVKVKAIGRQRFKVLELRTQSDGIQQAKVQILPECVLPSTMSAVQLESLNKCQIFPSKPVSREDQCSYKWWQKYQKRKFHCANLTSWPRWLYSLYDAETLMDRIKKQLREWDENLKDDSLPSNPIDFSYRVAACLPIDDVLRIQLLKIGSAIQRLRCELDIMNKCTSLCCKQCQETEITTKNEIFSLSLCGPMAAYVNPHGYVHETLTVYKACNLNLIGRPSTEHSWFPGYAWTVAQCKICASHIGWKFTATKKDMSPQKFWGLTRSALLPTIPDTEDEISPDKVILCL
In short: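 After 3 h at room temperature, emission at 665 and 620 nm was measured in a homogeneous time-resolved fluorescence format. Compounds competed with a Thalidomide-Re probe for GST-tagged wild-type human CRBN, which was labelled with a Eu anti-GST antibody.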

[15] = test system: Jurkat; test: CCK-8 proliferation, Jurkat; assay type: cell-based, Human; settings: Homo sapiens
In short: as §1

[16] = test system: MM.1R; test: CCK-8 proliferation, MM.1R; assay type: cell-based; settings: CCK-8, 72 hours, read-out: Inhibitory activity (IC50) on tumor cell proliferation, MM.1R
In short: as §1

[17] = SR, CCK-8, 72 hours, read-out: Inhibitory activity (IC50) on tumor cell proliferation, SR
[18] = CCK-8, 72 or 96 hours, read-out: Inhibitory activity (IC50) on tumor cell proliferation, MV-4-11
[19] = CCRF-CEM, CCK-8, 96 hours, read-out: Inhibitory activity (IC50) on tumor cell proliferation, CCRF-CEM
[20] = Table B10, compounds designed based on the IRAK4 inhibitors, SR cells, read-out: Inhibitory activity (IC50, nM) on tumor cell proliferation, SR
[21] = Table B10, compounds designed based on the IRAK4 inhibitors, MGC803 cells, read-out: Inhibitory activity (IC50, nM) on tumor cell proliferation, MGC803
[22] = Table B10, compounds designed based on the IRAK4 inhibitors, Jurkat cells, read-out: Inhibitory activity (IC50, nM) on tumor cell proliferation, Jurkat
[23] = Jurkat, CCK-8, 96 hours, read-out: Inhibitory activity (IC50) on tumor cell proliferation, Jurkat
[24] = CCK-8, 72 hours, read-out: Inhibitory activity (IC50) on tumor cell proliferation, MGC80-3

CNC(=O)c1ccccc1Nc1cc(Nc2ccc(N3CCC(N(C)Cc4ccc(C5CCC(=O)NC5=O)c(F)c4)CC3)cc2OC)ncc1C(F)(F)F (centres unmarked) [GT-03734, 2-((2-((4-(4-((4-(2,6-dioxopiperidin-3-yl)-3-fluorobenzyl)(methyl)amino)piperidin-1-yl)-2-methoxyphenyl)amino)-5-(trifluoromethyl)pyridin-4-yl)amino)-N-methylbenzamide]
IC50 [1]: 100 to 500 nM | IC50 [2, 17]: 50 to 100 nM | IC50 [3]: 100 to 500 nM | IC50 [4, 18]: 100 to 500 nM | IC50 [5]: 50 to 100 nM | IC50 [6, 19]: 100 to 500 nM | Degradation of substrate protein FAK (substrate protein remaining %) [7]: A (A is defined as 0% ≤ substrate protein remaining % ≤ 80%)

Cc1ccc(-c2c(C)noc2C)cc1N(CC1CCN(Cc2cccc(NC3CCC(=O)NC3=O)c2)CC1)c1ccc(C2(C#N)CC2)cc1 (centres unmarked) [GT-04841, 1-(4-((5-(3,5-dimethylisoxazol-4-yl)-2-methylphenyl)((1-(3-((2,6-dioxopiperidin-3-yl)amino)benzyl)piperidin-4-yl)methyl)amino)phenyl)cyclopropane-1-carbonitrile]
IC50 [8]: 500 to 1000 nM | IC50 [9]: 100 to 500 nM

Cc1ccc(-c2c(C)noc2C)cc1N(CC1CCN(Cc2cccc(N3CCC(=O)NC3=O)c2)CC1)c1ccc(C2(C#N)CC2)cc1 [GT-04842, 1-(4-((5-(3,5-dimethylisoxazol-4-yl)-2-methylphenyl)((1-(3-(2,4-dioxotetrahydropyrimidin-1(2H)-yl)benzyl)piperidin-4-yl)methyl)amino)phenyl)cyclopropane-1-carbonitrile]
IC50 [8]: 500 to 1000 nM | IC50 [9]: 500 to 1000 nM

CC[C@@H]1[C@H](F)C(=O)N[C@@H]1COc1nccc2cc(C(N)=O)c(OC)cc12 [PF06650833, reference compound]
IC50 [10]: 5000 to 10000 nM | IC50 [2, 20]: 1000 to 5000 nM | IC50 [11]: > 10000 nM | IC50 ([4]; Table B10, compounds designed based on the IRAK4 inhibitors, MV-4-11 cells, read-out: Inhibitory activity (IC50, nM) on tumor cell proliferation, MV-4-11): 1000 to 5000 nM | IC50 [12, 21]: 5000 to 10000 nM | IC50 ([6]; Table B10, compounds designed based on the IRAK4 inhibitors, CCRF-CEM cells, read-out: Inhibitory activity (IC50, nM) on tumor cell proliferation, CCRF-CEM): 5000 to 10000 nM | IC50 [13]: > 10000 nM | IC50 ([14]; Table II-1, CRBN binding): > 10000 nM | IC50 [15, 22]: > 10000 nM

CNC(=O)c1ccccc1Nc1cc(Nc2ccc(N3CCOCC3)cc2OC)ncc1C(F)(F)F [PND-1186, reference compound]
IC50 [4, 18]: 100 to 500 nM | IC50 [5]: 1000 to 5000 nM | IC50 [6, 19]: 1000 to 5000 nM | IC50 [16]: 500 to 1000 nM | IC50 [15, 23]: 1000 to 5000 nM

Cc1ccc(-c2c(C)noc2C)cc1N(CC1CCN(Cc2ccc(C3CCC(=O)NC3=O)c(F)c2)CC1)c1ccc(C2(C#N)CC2)cc1 (centres unmarked) [GT-04840, 1-(4-((5-(3,5-dimethylisoxazol-4-yl)-2-methylphenyl)((1-(4-(2,6-dioxopiperidin-3-yl)-3-fluorobenzyl)piperidin-4-yl)methyl)amino)phenyl)cyclopropane-1-carbonitrile]
IC50 [3]: 100 to 500 nM | IC50 [9]: 10 to 50 nM | IC50 [12, 24]: 100 to 500 nM

O=C1CCC(c2ccc(CN3CCN(c4ccc(-n5cc(NC(=O)c6coc(-c7ccnc(NCC(F)(F)F)c7)n6)c(C(F)F)n5)cc4)CC3)cc2)C(=O)N1 (centres unmarked) [GT-04273, N-(3-(difluoromethyl)-1-(4-(4-(4-(2,6-dioxopiperidin-3-yl)benzyl)piperazin-1-yl)phenyl)-1H-pyrazol-4-yl)-2-(2-((2,2,2-trifluoroethyl)amino)pyridin-4-yl)oxazole-4-carboxamide]
IC50 [10]: 50 to 100 nM | IC50 [2, 20]: 50 to 100 nM | IC50 [11]: 100 to 500 nM | IC50 [12, 21]: 10 to 50 nM | IC50 [13]: 1 to 10 nM | IC50 [15, 22]: 1 to 10 nM

CNC(=O)c1ccccc1Nc1cc(Nc2ccc(N3CCC(N4CCN(Cc5ccc(C6CCC(=O)NC6=O)c(F)c5)CC4)CC3)cc2OC)ncc1C(F)(F)F (centres unmarked) [GT-03600, 2-((2-((4-(4-(4-(4-(2,6-dioxopiperidin-3-yl)-3-fluorobenzyl)piperazin-1-yl)piperidin-1-yl)-2-methoxyphenyl)amino)-5-(trifluoromethyl)pyridin-4-yl)amino)-N-methylbenzamide]
IC50 [1]: 500 to 1000 nM | IC50 [2, 17]: 50 to 100 nM | IC50 [3]: 50 to 100 nM | IC50 [5]: 100 to 500 nM | IC50 [6, 19]: 500 to 1000 nM | Degradation of substrate protein FAK (substrate protein remaining %) [7]: A (A is defined as 0% ≤ substrate protein remaining % ≤ 80%) | IC50 [16]: 500 to 1000 nM

CNC(=O)c1ccccc1Nc1cc(Nc2cc(C)c(N3CCC(N(C)Cc4ccc(C5CCC(=O)NC5=O)cc4)CC3)cc2OC(C)C)ncc1C(F)(F)F (centres unmarked) [GT-04094, 2-((2-((4-(4-((4-(2,6-dioxopiperidin-3-yl)benzyl)(methyl)amino)piperidin-1-yl)-2-isopropoxy-5-methylphenyl)amino)-5-(trifluoromethyl)pyridin-4-yl)amino)-N-methylbenzamide]
IC50 [3]: 100 to 500 nM | IC50 [5]: 500 to 1000 nM | IC50 [6, 19]: 500 to 1000 nM | Degradation of substrate protein FAK (substrate protein remaining %) [7]: A (A is defined as 0% ≤ substrate protein remaining % ≤ 80%) | inhibition at 0.5 µM ([14]; Table II-2, CRBN binding screening, at 0.5µM, read-out: Inhibition rate (%) at 0.5µM): 10 to 20% | inhibition at 2 µM ([14]; Table II-2, CRBN binding screening, at 2 µM, read-out: Inhibition rate (%) at 2 µM): 53 to 60%

CNC(=O)c1ccc(Nc2ncc(C(F)(F)F)c(NCc3nccnc3N(C)S(C)(=O)=O)n2)cc1 [Defactinib, reference compound]
IC50 [1]: 1000 to 5000 nM | IC50 [2, 17]: 500 to 1000 nM | IC50 [3]: 1000 to 5000 nM | IC50 [4, 18]: 50 to 100 nM | IC50 [5]: 5000 to 10000 nM | IC50 [6, 19]: 1000 to 5000 nM | IC50 [16]: 1000 to 5000 nM | IC50 [15, 23]: 1000 to 5000 nM

Cc1ccc(-c2c(C)noc2C)cc1N(CC1CCN(Cc2ccc(C3CCC(=O)NC3=O)cc2)CC1)c1ccc(C2(C#N)CC2)cc1 (centres unmarked) [GT-04839, 1-(4-((5-(3,5-dimethylisoxazol-4-yl)-2-methylphenyl)((1-(4-(2,6-dioxopiperidin-3-yl)benzyl)piperidin-4-yl)methyl)amino)phenyl)cyclopropane-1-carbonitrile]
IC50 [3]: 500 to 1000 nM | IC50 [9]: 50 to 100 nM | IC50 [12, 24]: 500 to 1000 nM | IC50 [6, 19]: 500 to 1000 nM
